According to publication PMC8491194, “A cyclic peptide retards the proliferation of DU145 prostate cancer cells in vitro and in vivo through inhibition of FGFR2” (MedComm, 2020):
Where a SMILES comes first, the peptide text is derived from it. Bridges are numbered along the chain shown (N, C = ends). Where no end group is shown, it is not given here. [ ]: non-standard residue; d: D form.

How the values were obtained:
[1] = tested on: heart, liver, spleen, lung, and kidney; experiment: H&E staining of major organs of tumor-bearing mice; format: in vivo, BALB/C‐nu/nu mice; settings: tumor-bearing mice at functional doses, paraffin sections
Procedure: (§1) DU145 cells with a density above 90% were harvested in to a microtube. The cell concentration was adjusted to 1 × 10^7 cells/mL, and two million cells were injected under the right arm of each individual. After injection, the tumors grew to a size of approximately 200 mm^3 in the following days. […] Animal models were randomly selected and assigned to each experimental group, and compounds were administered by intratumoral injections. The dosing regimen was one injection a day for 7 days. The length and width of the tumor were measured using a Vernier caliper once a day, and the animal's weight was recorded once a day from the beginning of the experiment. On Day 14, blood samples of each animal were collected, the tumor tissue was separated and weighed, and internal organs were collected. The tumor volume was calculated according to the formula V = ab ^2/2 (a refers to the length of the tumor, and b refers to the width).
Briefly, the connective tissue around the parenchyma organ was removed and washed three times in PBS, and the tissues were fixed with 10% formalin solution for 24 hours, followed by gradient ethanol dehydration. The tissues were then subjected to paraffin embedding. Sections of 4 μm thickness were prepared for H&E staining. H&E staining was performed according to the standard protocol of the H&E staining kit (Solarbio, China).

FGFR2 = FGFR2 (Homo sapiens, UniProt P21802); experiment: Isothermal titration calorimetry (ITC) binding to FGFR2 protein; settings: in Figure 4A, read-out: KD, P5-FGFR2
Sequence of FGFR2 (P21802 22-821): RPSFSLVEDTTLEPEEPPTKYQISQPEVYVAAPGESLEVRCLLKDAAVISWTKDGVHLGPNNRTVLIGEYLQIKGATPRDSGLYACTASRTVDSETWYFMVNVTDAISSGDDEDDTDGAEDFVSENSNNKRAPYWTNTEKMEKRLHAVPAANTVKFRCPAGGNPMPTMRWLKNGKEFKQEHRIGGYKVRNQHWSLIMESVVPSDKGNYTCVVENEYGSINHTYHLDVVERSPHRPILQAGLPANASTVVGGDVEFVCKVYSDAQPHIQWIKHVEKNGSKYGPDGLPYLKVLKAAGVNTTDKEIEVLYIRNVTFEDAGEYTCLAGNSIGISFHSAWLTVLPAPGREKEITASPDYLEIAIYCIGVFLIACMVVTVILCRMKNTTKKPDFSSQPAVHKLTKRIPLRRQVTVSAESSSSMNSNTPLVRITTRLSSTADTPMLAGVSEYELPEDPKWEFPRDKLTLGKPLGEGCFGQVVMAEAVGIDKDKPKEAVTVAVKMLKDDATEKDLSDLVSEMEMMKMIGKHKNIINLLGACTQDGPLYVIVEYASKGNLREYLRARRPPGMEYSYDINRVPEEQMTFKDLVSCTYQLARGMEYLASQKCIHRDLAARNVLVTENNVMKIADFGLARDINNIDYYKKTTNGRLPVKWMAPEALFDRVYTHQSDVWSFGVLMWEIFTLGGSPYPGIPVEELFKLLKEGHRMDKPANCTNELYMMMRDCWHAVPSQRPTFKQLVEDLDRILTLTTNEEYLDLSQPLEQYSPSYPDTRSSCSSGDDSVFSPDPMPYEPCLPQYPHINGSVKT
Procedure: A set of peptide candidates was designed with manual inspection, synthesized with a chemical dehydration reaction, and verified with MS. To screen the candidates, an in vitro binding assay using isothermal titration calorimetry (ITC) was performed against the FGFR2 protein using AutoiTC200 (MicroCal, MA). After the positive candidate was confirmed by ITC, three analog peptides with different mutant amino acids were designed to verify the active site previously determined. The binding affinity of each mutant analog to FGFR2 was measured using ITC and compared with the positive candidate.
(§2) In our study, peptide cyclization was achieved by adding two cysteine residues to each end of the peptides. Cysteine is a chiral molecule. The natural cysteine is L‐cysteine, and a report has shown that introduction of unnatural D‐cysteine can theoretically improve the stability of the cyclic peptide in vivo.[41], [42], [43] Therefore, we designed and synthesized two cyclic peptides, DcP5 and LcP5, with two L‐cysteines or D‐cysteines at each end, respectively. The amino acid polymers of DcP5 and LcP5 were synthesized via the same organic chemistry as the P5 peptide. The cysteine‐ending peptides were spontaneously cyclized at 37°C in PBS (pH = 9.0) for 12 hours. […] Then, the binding affinity of these two cyclic peptides to FGFR2 was measured by ITC as described in Section 2.1. […]

[2] = Peptide concentration in peripheral blood after administration; format: in vivo, BALB/C‐nu/nu mice; settings: 25 mg/kg, serum; for time before blood concentration dropped below half C max: mice, biotin quantitation kit, sampled 0.5-24 hours postadministration
Procedure: as §1, with “On Day 14, blood samples of each animal were collected, the tumor tissue was separated and weighed, and internal organs were collected.” left out
Serum in the blood was separated and used to perform biotin quantitation with a Biotin Quantitation assay kit (MyBioSource, San Diego, CA) to calculate the concentration of the biotin‐peptide complex in the blood sample. Serum samples from the blank group were used as background controls, and serum of the 25 mg/kg‐dose P5 group and 25 mg/kg‐dose DcP5 group was examined in this step.

L02 normal liver cells = experiment: Toxicity toward L02 normal liver cells; format: cell-based, human; settings: in vitro
Procedure: (§3) The cell lines, including DU145 (human prostate cancer cells, American Type Culture Collection/ATCC, Manassas, VA), LNCaP (human prostate cancer cells, ATCC, Manassas, VA), KYSE30 (human esophageal squamous cell carcinoma cells, ATCC, Manassas, VA), KYSE510 (human esophageal squamous cell carcinoma cells, ATCC, US), L02 (human normal liver cells, ATCC, Manassas, VA), and MCF‐7 (human breast cancer cells, ATCC, Manassas, VA) were cultured in DMEM medium (Thermo Gibco, Waltham, MA) with 10% FBS (Biological Industries, Israel). The SGC7901 (human gastric cancer cells, ATCC, Manassas, VA) cells were maintained in RPMI‐1640 medium (Thermo Gibco, Waltham, MA) with 10% FBS. All these cell lines were cultured at 37°C in a 5% CO2 cell incubator (Bio‐Rad, Hercules, CA). Subculture of these cell lines was employed with 0.25% trypsin (Thermo Gibco, Waltham, MA).
(§4) Cell proliferation was evaluated using the Enhanced CCK‐8 cell proliferation and toxicity test kit (Meilunbio, China) according to the product specifications. Finally, the OD450 nm and OD630 nm were measured with an iMark dual wavelength microplate reader (Bio‐Rad, Hercules, CA), and the ratio of OD450 nm/OD630 nm was calculated.

[3] = Body weight of tumor-bearing mice; format: in vivo, BALB/C‐nu/nu mice; settings: various dosing regimens; data not shown
Procedure: as §1

DU145 cells [4] = experiment: CCK-8 cell proliferation, DU145 cells; format: cell-based, human; settings: DU145, concentrations of 6.25 and 12.5 μM
Procedure: as §3
The cells were seeded at a density of 30 000 cells/mL based on cell counting performed with a cell counting plate. […]
as §4

FGFR2 on DU145 cells = experiment: Immunofluorescence assay (IFA) of biotin-labeled peptide binding to DU145 cells; format: cell-based, human
Procedure: The binding affinity was analyzed under fluorescent microscope. GFP‐labeled DU145 cells were cultured to a density of 50%, followed by 4% paraformaldehyde fixation. After treated with 0.2% Triton X‐100, the cells were then blocked with 5% BSA. The incubation was performed by different treatments and SA‐PE‐TRITC was used as a fluorescent indicator; briefly, the FGFR2 mAb group (Abcam [Cambridge, MA] followed by PE‐TRITC‐labeled goat antimouse IgG for color development), and the blank group (equal amounts of PBS followed by SA‐PE‐TRITC as a fluorescent indicator were added). After adding the biotin‐labeled P5 peptide, biotin‐labeled P5‐3 peptide or anti‐FGFR2 mAb, the cells were incubated at 4°C overnight. After washing five times with PBST, the TRITC‐labeled streptavidin regent or TRITC‐labeled secondary antibody was introduced for another incubation at 25°C for 30 minutes in dark. Finally, the DAPI staining reagent was employed to stain the nucleus for 10 minutes in dark, followed by washing five times with PBS. After the addition of ProLong Antifade mounting medium (Thermo, Waltham, MA), a confocal microscope (OLS4100, Japan) was used for observation.

[5] = tested on: FGFR2 knockdown DU145 cells; experiment: Growth inhibition in FGFR2-knockdown (shFGFR2) DU145 cells; format: cell-based, human; settings: DU145, shFGFR2 knockdown vs wild type
Procedure: The cells were seeded at a density of 30 000 cells/mL based on cell counting performed with a cell counting plate. Different concentrations of the P5 peptide were added to the cultural medium, followed by a 24‐hour incubation at 37°C in a 5% CO2 cell incubator (Bio‐Rad, Hercules, CA). Five replicates were set up for each experimental group.
as §4
The shFGFR2 plasmid was purchased from Sigma (St Louis, MO) (TRCN0000218493). One microliter Lip3000 (Lipofectamine 3000, Invitrogen, Carlsbad, CA) was mixed with 100 ng plasmid in nonserum DMEM medium before being added into the cultural DU145 cells. The cells were incubated with the Lip3000/plasmid solution for 6 hours, followed by DMEM with 10% FBS incubation. The transfected cells were then ready for growth‐inhibition experiment and RNA extraction for qPCR.

DU145 xenograft = DU145 xenograft in nude mice, tumor growth; format: in vivo, BALB/C‐nu/nu mice; settings: intratumoral injection once a day for 7 days, evaluated to Day 14, P5 10-25 mg/kg, DcP5 10, 25, 50 mg/kg, P5-3 50 mg/kg
Procedure: The specific pathogen‐free (SPF) level experimental male nude mice were purchased from the Animal Center of Guangdong Province (China), and the strain was BALB/C‐nu/nu. The animal experiments were conducted by the Animal Experimental Center of Jinan University (China) according to the National Institutes of Health guide for the care and use of Laboratory animals. The treatment and experimental procedure met the requirements of animal ethics.
as §1

DU145 cells [6] = experiment: Colony formation of DU145 cells; format: cell-based, human; settings: 12.5 μM
Procedure: Cell colony formation was also employed to evaluate the effect of P5 and DcP5. The DU145 cells were seeded in six‐well plates (500 cells/well). The cultural supernatant was removed at 48 hours posttreatment, followed by washing with PBS three times. The cells were then fixed with 4% paraformaldehyde and air dried. Crystal violet staining was performed using solution (Sangon, China) as per the instructions. Then, photographs were taken, and spot amounts were calculated with an Invitrogen Countess II FL (Thermo, Waltham, MA) cell counter.
as §2

[7] = tested on: phosphorylated FGFR2, AKT, and ERK1/2; experiment: Western blot of phosphorylated FGFR2, AKT and ERK1/2 in xenograft tumors; format: in vivo, BALB/C‐nu/nu mice; settings: tumor tissue of xenograft mice
Procedure: DU145 cells with a density above 90% were harvested in to a microtube. The cell concentration was adjusted to 1 × 10^7 cells/mL, and two million cells were injected under the right arm of each individual. […] Animal models were randomly selected and assigned to each experimental group, and compounds were administered by intratumoral injections. The dosing regimen was one injection a day for 7 days. The length and width of the tumor were measured using a Vernier caliper once a day, and the animal's weight was recorded once a day from the beginning of the experiment. On Day 14, blood samples of each animal were collected, the tumor tissue was separated and weighed, and internal organs were collected. The tumor volume was calculated according to the formula V = ab ^2/2 (a refers to the length of the tumor, and b refers to the width).
Cell lysates were subjected to SDS‐PAGE for Western blotting. Briefly, cells were lysed with RIPA buffer (Thermo, Waltham, MA), followed by heat denaturation in 1X Laemmli SDS buffer (Sigma, St Louis, MO). For SDS‐PAGE 100 μg proteins were loaded to each lane. After electrophoresis, the proteins were transferred onto PVDF membranes, followed by blocking in 5% nonfat milk. […] The bands were quantified using Image Lab Software 6.0 (Bio‐Rad, Hercules, CA).

| Compound | toxicity toward heart, liver, spleen, lung, and kidney (H&E morphology) [1] | Kd (FGFR2) [nM] | time before blood concentration dropped below half C max [2] [h] | toxicity toward normal cells (L02 normal liver cells) | body weight versus other groups incl. blank [3] | growth-inhibition rate relative to P5 (DU145 cells [4]) | concentration in peripheral blood relative to P5 ([2]; 0.5 hour after administration, biotin quantitation kit (biotin-peptide)) | fluorescent intensity of treated cells relative to P5 (FGFR2 on DU145 cells; IFA) | binding to FGFR2 on cells (IFA) (FGFR2 on DU145 cells; biotin-labeled peptide) | growth inhibitory effect in FGFR2 knockdown cells compared to wild type cells [5] | tumor growth in xenograft (DU145 xenograft) | colony number versus control group (DU145 cells [6]; 500 cells/well, crystal violet) | less colonies than cells exposed to P5 (DU145 cells [6]; P < .05) [%] | phosphorylation of FGFR2, AKT, and ERK1/2 [7] |
| --- | --- | --- | --- | --- | --- | --- | --- | --- | --- | --- | --- | --- | --- | --- |
| LQLQAEER [P5] | negligible toxicity | 490 | 5 | negligible toxicity | little difference in body weight | – | – | – | – | – | – | – | – | – |
| CC(C)C[C@@H]1NC(=O)[C@H](N)CSSC[C@H](C(=O)O)NC(=O)[C@H](CCCNC(=N)N)NC(=O)[C@H](CCC(=O)O)NC(=O)[C@H](CCC(=O)O)NC(=O)[C@H](C)NC(=O)[C@H](CCC(N)=O)NC(=O)[C@H](CC(C)C)NC(=O)[C@H](CCC(N)=O)NC1=O [DcP5] (H-[dC]LQLQAEER[dC]-OH; disulfide 1-10; N-terminus and C-terminus assumed) | remained normal | – | 7 | – | little difference in body weight | stronger inhibition than P5 | twice | significantly stronger | bind to FGFR2 | significantly decreased | significantly decreased the tumor size in dose‐dependent manner | significantly less than the control group | 20 | reduced |
